{"source": "patent US20080089860A1", "about": "“Therapeutic compositions and methods useful in treating cancer” (priority 2006, published 2008)", "key": {"NB4 cells [1]": {"test_system": "NB4 cells", "test": "NB4 cell cycle analysis and Annexin V/propidium iodide assay", "assay_type": "cell-based, human", "protocol": "[…] Briefly, the cells were fixed in cold ethanol and incubated for 30 minutes at 4° C. in the dark with a solution of […], 1 mg/ml RNase and 0.1% NP-40. Analysis was performed immediately after staining using the CELLFIT program (Becton Dickinson, Mountain View, Calif.).\n] Annexin V staining of exposed membrane phospholipid phosphatidylserine (PS) was done using the Annexin V assay kit (Pharmingen, San Diego, Calif.). Briefly, NB4 cells were cultured in the 10% FCS RPMI 1640 medium in the absence or presence of sodium stibogluconate (250 µg/ml) or ATRA (1 µM) for 3 days. Cells were then washed in PBS twice and stained in binding buffer (10 mM Hepes, pH 7.4; 140 mM NaCl; 2.5 mM CaCl2) containing Annexin V-FITC and propidium iodide for 15 min. The reaction was stopped by adding 10 volumes of binding buffer and analyzed by FACS (Becton Dickinson Facsvantage)."}, "PTP1B": {"biological_target": "T1, PTP1B (Homo sapiens, UniProt P18031)", "T1 construct": "purchased Upstate Biotechnology Inc. (Lake Placid, N.Y.)", "T1 sequence (P18031 whole entry, species assumed)": "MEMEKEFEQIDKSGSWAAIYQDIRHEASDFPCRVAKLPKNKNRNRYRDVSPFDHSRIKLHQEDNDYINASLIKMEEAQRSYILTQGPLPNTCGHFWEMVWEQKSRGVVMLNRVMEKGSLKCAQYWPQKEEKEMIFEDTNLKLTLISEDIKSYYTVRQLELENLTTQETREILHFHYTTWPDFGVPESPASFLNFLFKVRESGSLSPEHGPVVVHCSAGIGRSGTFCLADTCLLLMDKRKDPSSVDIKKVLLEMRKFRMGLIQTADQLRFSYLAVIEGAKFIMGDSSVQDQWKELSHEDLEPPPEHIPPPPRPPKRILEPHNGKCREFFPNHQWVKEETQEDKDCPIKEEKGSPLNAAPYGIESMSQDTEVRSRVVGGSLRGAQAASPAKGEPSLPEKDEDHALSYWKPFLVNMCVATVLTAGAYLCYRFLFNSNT", "test": "In vitro PTPase assay, GST/PTP1B", "assay_type": "biochemical", "conditions": "0.1 to 1 μg/ml", "protocol": "In vitro PTPase activities were measured using the commercial protein tyrosine phosphatase assay kit (Upstate Biotechnology, Inc. (“UBI”)) following established procedure known to one of skill in the art. This assay measures the in vitro dephosphorylation of a synthetic phosphotyrosine peptide of the sequence Arg-Arg-Leu-Ile-Glu-Asp-Ala-Gle-T- -yr-Ala-Ala-Arg-Gly, wherein the tyrosine is phosphorylated (SEQ ID NO: 3). Briefly, 0.01 µg of GST/PTPase fusion proteins was incubated in 50 µl of Tris buffer (10 mM Tris, pH 7.4) containing different concentrations of inhibitors or chemicals (0-1,000 µg/ml) at 22° C. for 10 minutes, followed by addition of 0.2 mM of the phosphotyrosine peptide and incubation at 22° C. for 18 hours. 100 µl of Malachite Green solution was added and incubated for 5 minutes, and the absorbance at 660 nm was measured after 5 minutes.\nIn vitro PTPase assays were used to determine the effects of levamisole (Sigma), pentamidine (American Pharmaceutical Partners, Inc.), and ketoconazole (Sigma) on recombinant PTPases, following established procedures (Pathak et al., J. Imumol. 167, 3391 (2001); Pathak et al., Leukemia 16, 2285 (2002), Yi et al., J. Immunol. 169, 5978 (2002)) using a synthetic phosphotyrosine peptide or DiFMUP as the substrate as detailed above in section I.A.2."}, "WM35 cells": {"test_system": "WM35 cells", "test": "WM35 melanoma cell growth", "assay_type": "cell-based, human", "protocol": "(§1) For cell proliferation assays, cells were grown in 10% FCS culture medium containing various amounts of IFNs and/or sodium stibogluconate in 96 well plates and cultured at 37° C. for 3 or 6 days as indicated. The numbers of viable cells in proliferation assays were determined by MTT assays as described in Phatak et al., J. Immunol. 167, 3391 (2001)."}, "Renca tumors": {"test_system": "Renca tumors", "test": "Renca tumors in Balb/c mice", "assay_type": "in vivo", "conditions": "end of treatment", "quoted_text": "Balb/c and athymic nude Balb/c mice (10 weeks old, female, Taconic Farms, Germantown, N.Y.) were inoculated (s.c.) at the flanks with Renca cells (10^6 cells/site). […] Student's t test was used for assessing the significance of tumor volume differences among differential treatment groups. Mouse viability (daily) and body weights (weekly) were also recorded during the study period. At the end of the study, Renca tumors and major internal organs (heart, kidney, liver, lung and spleen) were harvested for histology and immunohistochemistry analysis."}, "NB4 cells [2]": {"test_system": "NB4 cells", "test": "NB4 cell proliferation, MTT assay", "assay_type": "cell-based, human", "conditions": "12.5-400 μg/ml", "protocol": "The NB4 cell line (Lanotte et al., Blood 77, 1080 (1991)) was a gift from Dr. Dan Lindner of the Cleveland Clinic Foundation. […] and U937 cell lines were purchased from American Type Culture Collection (Rockville, Md.). These human […] cell lines were maintained in RPMI 1640 medium supplemented with 10% fetal calf serum (FCS). For cell proliferation assays, cells were cultured at 37° C. in 10% FCS medium containing various amounts of sodium stibogluconate for 6 days. The cell numbers in the cultures were determined by an MTT assay as described previously in Mosmann, J. Immunol. Methods 65, 55 (1983)."}, "C42 cells": {"test_system": "C42 cells", "test": "C42 prostate cancer cell growth", "assay_type": "cell-based, human", "protocol": "as §1"}, "DS cells": {"test_system": "DS cells", "test": "DS lymphoma cell growth, MTT assay", "assay_type": "cell-based, human", "conditions": "day 3; IFN-alpha 1,000 u/ml", "protocol": "as §1"}, "Baf3 cells": {"test_system": "Baf3 cells", "test": "Baf3 cell proliferation assay", "assay_type": "cell-based, murine", "protocol": "The murine hematopoietic cell line Baf3 was maintained in RPMI 1640 medium supplemented with 10% fetal calf serum (FCS) and murine IL-3 (20 units/ml) as described previously in Damen et al., J. Biol. Chem. 270, 23402 (1995). Human myeloid cell line TF-1 was maintained in RPMI 1640 supplemented with 10% FCS and 40 ng/ml of recombinant human GM-CSF as described previously in Thomassen et al., Clin. Immunol. 95, 85 (2000). For cell proliferation assays, cells were washed in 10% FCS medium twice, resuspended in 10% FCS medium, incubated at 37° C. for 16 hours, and then cultured at 37° C. in 10% FCS medium containing various amounts of cytokines, sodium stibogluconate, or potassium antimonyl tartrate for 3-6 days as indicated. The cell numbers in proliferation assays were determined by an MTT assay or by microscopic cell counting as indicated."}, "DU145 tumors": {"test_system": "DU145 tumors", "test": "DU145 tumors in athymic nude mice, sodium stibogluconate alone", "conditions": "mouse, in vivo", "protocol": "Athymic nude mice (nu/nu, NCR), 4 weeks old (Taconic), were inoculated (s.c.) in the flanks with DU145 cells (3×10^6 cells/site) on day 0, Starting on day 2, the mice were subjected to no treatment (Control) or treatment with sodium stibogluconate (12 mg, […], daily, i.m., at the hip area). The dosage of sodium stibogluconate used in the study was similar to the effective daily dose of sodium stibogluconate for the treatment of murine leishmaniasis (Murray, et al. 1988). Tumor volume was measured and calculated using the formula for a prolate spheroid (V=4/3 7 a^2b) (Lindner, et al. 1997). Hematoxylin+Eosin (H.E.) stained tissue sections of internal organs and tumor inoculation sites tissues of the mice were prepared and subjected microscopic evaluation.\nNude mice were inoculated with DU145 cells sub-cutaneously at the shoulder area. Two days after inoculation when tumors were visible, the mice were subjected to no treatment (control) or sodium stibogluconate treatment (daily injection of 440 mg/kg, intermuscular at the hip area). […] Histology of their major organs was unremarkable."}, "WiT49-N1 cells": {"test_system": "WiT49-N1 cells", "test": "WiT49-N1 Wilms tumor cell growth, MTT assay", "assay_type": "cell-based, human", "conditions": "day 6 culture; killing at 100 μg/ml", "protocol": "as §1"}}, "note": "“Also recorded” adds a separate entry of the source.", "data": [{"smiles": "O.O.O.O.O.O.O.O.O.O=C([O-])[C@@H]1[O][Sb]2([O-])([O][Sb]34([OH])[O][C@H]([C@H](O)CO)[C@H]([O]3)[C@H](C(=O)[O-])[O]4)[O][C@H]([C@H](O)CO)[C@@H]1[O]2.[Na+].[Na+].[Na+]", "note": "[sodium stibogluconate]", "values": [{"measurement": "Annexin V staining of NB4 cells", "setting": "NB4 cells [1]; 250 μg/ml for 6 days", "value": "stained positive by Annexin V"}, {"measurement": "cell cycle distribution of NB4 cells", "setting": "NB4 cells [1]; 3 days, sodium stibogluconate 250 μg/ml, ATRA 1 μM", "value": "significant increase of cells at S phase"}, {"measurement": "inhibition of PTP1B activity", "setting": "PTP1B", "value": "only modestly effective"}, {"measurement": "effect on WM35 melanoma cell line", "setting": "WM35 cells", "value": "minimally affected"}, {"measurement": "tolerability of treatment", "setting": "Renca tumors", "value": "tolerated well"}, {"measurement": "proliferation of NB4 cells", "setting": "NB4 cells [2]", "value": "markedly inhibited"}, {"measurement": "response of C42 prostate cancer cell line", "setting": "C42 cells", "value": "highly resistant"}, {"measurement": "activity against DS cells", "setting": "DS cells", "value": "modest activity"}, {"measurement": "IL-3-induced Baf3 growth", "setting": "Baf3 cells; 1,000 μg/ml", "value": "suppressed"}, {"measurement": "cell proliferation and viability in the absence of IL-3", "setting": "Baf3 cells; day 3 culture", "value": "failed to support cell proliferation or maintain cell viability"}, {"measurement": "histology of major organs", "setting": "DU145 tumors", "value": "unremarkable"}, {"measurement": "survival of mice", "setting": "DU145 tumors", "value": "survived until the end of the study"}, {"measurement": "sensitivity of WiT49-N1 cells", "setting": "WiT49-N1 cells", "value": "sensitive; also recorded: complete or near complete killing"}]}]}
